According to patent US12116424B2, “Compounds and compositions for modulating Listeria virulence” (priority 2021, dated 2024):
Read-outs that look alike come from different tables or passages of the source. Where a SMILES comes first, the peptide text is derived from it. Bridges are numbered along the chain shown (N, C = ends). [ ]: non-standard residue; d: D form.

Assays:
[1] = target: T1, L. monocytogenes AgrC (Listeria monocytogenes serovar 1/2a, UniProt Q8YAR5); experiment: Fluorescence (agr-GFP) reporter agonism assay, ΔagrD reporter strain; type: cell-based; design: Emax: dose or concentration left out as unconfirmed
T1 sequence (Q8YAR5 entry or part of it): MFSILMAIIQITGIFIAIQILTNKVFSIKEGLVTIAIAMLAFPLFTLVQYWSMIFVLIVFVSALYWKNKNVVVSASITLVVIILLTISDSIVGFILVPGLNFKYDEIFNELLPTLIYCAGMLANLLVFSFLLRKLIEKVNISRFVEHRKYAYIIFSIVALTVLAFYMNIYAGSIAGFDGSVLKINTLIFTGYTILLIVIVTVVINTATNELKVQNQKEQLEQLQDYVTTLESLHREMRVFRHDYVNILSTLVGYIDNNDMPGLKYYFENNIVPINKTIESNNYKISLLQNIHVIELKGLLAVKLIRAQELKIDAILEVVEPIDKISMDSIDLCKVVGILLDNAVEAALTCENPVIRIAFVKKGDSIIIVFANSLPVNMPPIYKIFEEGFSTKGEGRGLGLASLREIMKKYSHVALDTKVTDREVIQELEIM
In short: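 L. monocytogenes EGD-e strains carrying agr promoter-GFP plasmid: ΔagrD for agonism (normalized to 1 μM AIP), wild type for antagonism (normalized to DMSO). Peptides in 1% DMSO with diluted overnight culture in BHI, 24 h at 37 °C shaking; GFP fluorescence corrected for background and OD600, four-parameter dose-response fit.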

[2] = target: T1, L. monocytogenes AgrC; experiment: Fluorescence (agr-GFP) reporter antagonism assay, wild-type EGD-e reporter strain; type: cell-based
Text: Construction of Listeria agr Reporter Strains. A gene block was designed and purchased from Integrated DNA Technologies to contain an EagI recognition site, the PII promoter of the agr system, the 3′ UTR of hly, super folder GFP, and a SaII recognition site. The gene block was digested with EagI and SaII, cloned into an EagI/SaII-cut pAM401 plasmid resulting in the plasmid pAM401-KW1, and then transformed into E. coli XL1-Blue competent cells. The insertion into pAM401 was confirmed using Kapa polymerase and primers DAP337 and DAP338, and additional confirmation via commercial sequencing. Purified plasmid was transformed into the conjugative E. coli S17 strain, which was used to conjugate to EGD-e and EGD-e ΔagrD to generate the agr-GFP reporter strains EGD-e:pAM401-KW1 and EGD-e ΔagrD:pAM401-KW1. Conjugation was verified using primers DAP337 and DAP338.
Fluorescence reporter assay protocol. For QS (agr) reporter assays, peptide stock solutions in DMSO (1 mM) were serially diluted in DMSO, and 2 μL of solution was added to each well in a black 96-well plate (polystyrene microtiter plate, Costar). Agonism assays utilized the ΔagrD reporter strain, with 2 μL of 100 μM AIP (final concentration 1 μM) as a positive control and 2 μL of DMSO as a negative control. Antagonism assays utilized the EGD-e reporter strain, with 2 μL of DMSO as a positive control. In both assays, wells containing only BHI media served as negative controls for normalization. An overnight culture of bacteria was diluted 1:50 in fresh BHI, then 198 μL were transferred to each well (excluding the media control wells). Plates were then incubated at 37° C. for 24 hours with shaking at 200 rpm. Fluorescence of GFP (excitation at 500 nm, emission at 540 nm) and OD600 of each well was measured using BioTek Synergy 2 plate reader. Measurements were processed by subtracting background fluorescence (BHI media), correcting by OD600, and the normalizing using the 1 μM AIP or the DMSO control for the agonism and antagonism assays, respectively. Non-linear regression curves were fitted to the data sets in GraphPad Prism 7 by using variable slope (four-parameter) dose-response analysis to obtain potency, efficacy, and statistical information about the activity of tested peptides. Each peptide was tested with three technical replicates and three biological replicates. All data derived from fluorescent reporter strains are represented with data points signifying the mean and error bars signifying the standard deviation from all replicates.
Preparation and Validation of Listeria agr Reporter Strains. […] However, adding exogenous AIP to the ΔagrD reporter results in an increase of fluorescence, indicating agr activity has been restored.

[3] = test system: L. monocytogenes EGD-e; type: cell-based, Listeria monocytogenes
Description: Biofilm assay protocol. Biofilms assays were adapted from previous reports and protocols.^51-52 Overnight cultures of L. monocytogenes EGD-e and ΔagrD were grown in BHI, then diluted 1:100 in LB. For single-point assays, 2 μL of agonists or antagonists at an appropriate concentration were added to wells in a clear 96-well microtiter plates. For dose-response assays, a stock solution of the select peptide were serially diluted in DMSO, then 2 μL of each concentration were transferred to the appropriate wells. Then, 198 μL of bacteria were added to their respective wells, using ΔagrD for agonist wells and EGD-e for antagonist wells. In each plate, additional vehicle controls for baseline biofilm formation of EGD-e and ΔagrD strains (2 μL of DMSO) were included, as well as a media control (200 μL of LB). Plates were incubated at room temperature for 24 hours statically, at which point plates were inverted over a glass waste container and gently shook to remove planktonic bacteria. The wells were gently washed with 200 μL of PBS twice, inverting again over the waste container to remove liquid. Then, 200 μL of 0.1% crystal violet solution (in water) were added to each well and incubated for 30 minutes. The wells were then washed with 200 μL of PBS three more times and left to air dry for 15 minutes. Remaining crystal violet was solubilized by the addition of 100 μL of 95% ethanol in water solution, pipetting up and down to mix, incubated for 10 minutes, then absorbance was read at 595 nm. Absorbance data was processed by normalizing to the EGD-e vehicle control (100%) and the LB media control (0%). Non-linear regression curves were fitted to the data sets in GraphPad Prism 7 by using variable slope (four-parameter) dose-response analysis to obtain potency, efficacy, and statistical information about the activity of tested peptides. Each well was tested with four technical replicates and three biological replicates. […]

[4] = test system: L. monocytogenes EGD-e ΔagrD; experiment: Crystal violet biofilm assay, ΔagrD strain (agonists); type: cell-based, Listeria monocytogenes
Description: Biofilm assay protocol. Biofilms assays were adapted from previous reports and protocols.^51-52 Overnight cultures of L. monocytogenes EGD-e and ΔagrD were grown in BHI, then diluted 1:100 in LB. For single-point assays, 2 μL of agonists or antagonists at an appropriate concentration were added to wells in a clear 96-well microtiter plates. For dose-response assays, a stock solution of the select peptide were serially diluted in DMSO, then 2 μL of each concentration were transferred to the appropriate wells. Then, 198 μL of bacteria were added to their respective wells, using ΔagrD for agonist wells and EGD-e for antagonist wells. In each plate, additional vehicle controls for baseline biofilm formation of EGD-e and ΔagrD strains (2 μL of DMSO) were included, as well as a media control (200 μL of LB). Plates were incubated at room temperature for 24 hours statically, at which point plates were inverted over a glass waste container and gently shook to remove planktonic bacteria. The wells were gently washed with 200 μL of PBS twice, inverting again over the waste container to remove liquid. Then, 200 μL of 0.1% crystal violet solution (in water) were added to each well and incubated for 30 minutes. The wells were then washed with 200 μL of PBS three more times and left to air dry for 15 minutes. Remaining crystal violet was solubilized by the addition of 100 μL of 95% ethanol in water solution, pipetting up and down to mix, incubated for 10 minutes, then absorbance was read at 595 nm. Absorbance data was processed by normalizing to the EGD-e vehicle control (100%) and the LB media control (0%). Non-linear regression curves were fitted to the data sets in GraphPad Prism 7 by using variable slope (four-parameter) dose-response analysis to obtain potency, efficacy, and statistical information about the activity of tested peptides. Each well was tested with four technical replicates and three biological replicates. All data derived from crystal violet biofilm assays are represented with data points signifying the mean and error bars signifying the standard deviation from all replicates.

[5] = read-out: Max Activation Observed

Structure (SMILES) | Emax [1, 5] | antagonism activity (in words) [2] | biofilm of wild-type (WT) strain (FIG. 9B) [3] | wild-type biofilm formation reduced by ([3]; 100 μM) | IC50 ([3]; dose-response, wild-type biofilm, read-out: IC50 (biofilm formation)) | Emax ([1]; read-out: Max Activation) | Emax at 1 µM ([1]; read-out: Max Activation) | biofilm formation of ΔagrD strain (FIG. 9A) [4] | biofilm production compared to vehicle controls ([4]; 10 μM, ΔagrD bacteria)
CSCC[C@H]1NC(=O)[C@H](Cc2ccccc2)NC(=O)[C@H](NC(=O)[C@@H](N)CCCCN)CSC(=O)[C@H](C(C)C)NC(=O)[C@H](Cc2ccccc2)NC1=O [A1K/C2dC/M4dM, K-(dC-F-dM-F-V)] (H-K[dC]F[dM]FV; thioester 2-C) | 8.1% | inhibiting wild-type activity to levels similar to basal ΔagrD activity | reduces biofilm | 90% | 1860 nM |  |  |  | 
CSCC[C@@H]1NC(=O)[C@H](Cc2ccccc2)NC(=O)[C@@H](NC(=O)[C@H](C)N)CSC(=O)[C@H](C(C)C)NC(=O)[C@H](Cc2ccccc2)NC1=O [AIP, A-(C-F-M-F-V), reference compound] (H-ACFMFV; thioester 2-C; N-terminus assumed) | 114% |  |  |  |  | 114% | 114% | increase biofilm formation | doubled
